In US20070225213A1, “Nucleic acid carriers for delivery of therapeutic agents” (priority 2006, published 2007):

Key:
[1] = test system: NIH3T3; assay: Effect of plating time on uptake of NAC-MTN and MTN, fluorescence (Example 11); type: cell-based, mouse; conditions: cells treated <1 hour after plating
Protocol: The effect of plating time on the differential rates of uptake between NAC-MTN and MTN were assayed in cells treated <1 hour and 24 hours after plating.
On day 1, MCF7, COS7, 3T3, and BHK21 cells were plated out in a standard tissue culture plate. After incubation of 20 minutes samples were added to cells in rows A, C, E, and G. Cells were incubated at 37C in a standard atmosphere of 5%CO2.
On day 2, samples were added to rows D, F, and H and the fluorescence was obtained EX620/EM680 S=80. Samples were removed from A,C,E and G, replaced with media and fluorescence read again. On day 2 observed significant drug toxicity in cells of rows A,C, E, G. Sample addition was postponed in row B since MCF7 were not yet confluent.
On day 3, added samples to cells in row B containing confluent MCF7's, removed samples from rows D, F, and H replaced with media and read fluorescence.
Fluorescence data from cells taken after removal of media was used to quantitate total MTN retained in the cells. Fluorescence data were converted to mg/ml MTN using a standard curve prepared with free MTN or NAC-MTN.
The percentage difference in fluorescence between cells treated with NAC-MTN or MTN alone was used to compare relative drug uptake.

[2] = test system: MCF7; assay: Cell uptake by MTN fluorescence EX620/EM680 (Examples 10 and 13, EX051605); type: cell-based, human; conditions: 10% w/w loading in DNA
Protocol: Materials: HSGDNA, MTN, ODNAS1116 (phosphorothioated, single stranded DNA, and Beta-cyclodextrin polymer (BCD-SBE, KKBIOMED Inc.) were previously prepared in water at 10 mg/ml, 1 mg/ml, 0.95 mg/ml, and 10 mg/ml respectively.
Procedure: For NAC-MTN, combined 37 ul HSGDNA (herring genomic DNA, Promega Inc.), 1426 ul HBSS( Hank's buffered saline, Sigma-Aldrich), with 37 ul of MTN, followed by 1500 ul 2× DMEM media to give 3 ml final and 24 uM (24 micro-molar) MTN and 10% w/w drug loading of MTN. For NAC-MTN (AR1505) combined 62 ul of HSDNA (deg. herring sperm DNA, Sigma) with 2377 ul HBSS, 61.7 ul MTN, 2500 ul 2× media to give 5 ml final and 24 uM MTN and 10% w/w drug loading of MTN to HSDNA. […]
Plate#1 Media was aspirated and cells treated with 100 ul of either NAC-MTN, CD-MTN, or MTN at 24 uM MTN final or 12.3 ug/ml MTN in all samples. Samples containing MTN were incubated 4 hours, removed, and fluorescence taken at EX620/EM680. […]
Samples were incubated 4 hours, removed, and MTN fluorescence taken at EX620/EM680. […] Average MTN fluorescence was averaged from 6 wells. For each cell type, MTN fluorescence was highest in MTN treated cells, followed by CD-MTN, and lowest in NAC-MTN. […]
PLATE#2: Dispensed 50 ul from source plate into plate #2 to give 150 ul final vol 4.1 ug/ml, 8 uMfinal per well, pre-read fluorescence w samples (bkgd) incubated 5 hr, removed, replaced w/ media, read fluor. […]

O=C1c2c(O)ccc(O)c2C(=O)c2c(NCCNCCO)ccc(NCCNCCO)c21 [MTN, mitoxantrone]
FLUOR (MTN fluorescence in cells) [1]: 18530 | % reduction in fluorescence relative to MTN alone (MTN = 0%) ([2]; Plate#1, 24 uM MTN, 4 hours): 0% | % reduction in fluorescence relative to MTN alone (MTN = 0%) ([2]; Plate#2, 8 uM MTN): 0%
